“And” between values parts separate entries of the source, which are not always exact repeats. Identical values can stand only once.
Experiments:
[1] = tested on: human basophils (KU812 cell line); experiment: Histamine release from KU812 basophils after CP48/80-induced degranulation (ELISA); type: cell-based
Protocol: FIG. 1: Evaluation by Elisa assay of histamine release after induced basophils degranulation. Protocol: in vitro test on human basophils (KU812 cell line), pre-treatment with Embelia extract for 20 min, stimulation with CP48/80 (10 μg/ml) for 20 min, tested vs cromoglycate (10 nM) as standard reference. Test was performed on liquid Embelia extract according to example 1 to measure its activity on degranulation of human basophils (KU812 cell line) stimulated with CP48/80. Effects on degranulation were evaluated by measuring histamine release after stimulation. Cells were cultured at 37° C., 5% CO2 and culture medium concerned EBSS supplemented with CaCl2 1.8 mM, MgCl2 0.8 mM and Bovine serum albumine (BSA) 0.1%. KU812 cells were then seeded in culture medium containing or not (control) the test compound or the reference (cromoglycate at 10 mM) and cells were pre-incubated for 20 minutes. Cells were then stimulated or not (non-stimulated control) with histamine release inducer CP48/80 at 10 μg/ml and incubated for 20 minutes. All experimental conditions were performed in n=3. At the end of incubation, the quantity of histamine in culture supernatants was measured using an ELISA kit according to the supplier's instructions. The inter-group comparisons were performed by Student's t-test for data management. Results are expressed in % according to the following formulas: [formula] [formula]

[2] = tested on: mast cells (Peritoneal cells from Wistar rat including ~50% mast cells); experiment: Histamine release from mast cells after CP48/80-induced degranulation (ELISA); type: cell-based
Protocol: FIG. 2: Evaluation by Elisa assay of histamine release after induced mast cells degranulation. Protocol: in vitro test on mast murine cells, peritoneal cells from Wistar rat including ˜50% mast cells, re-treatment with Embelia extract for 15 min, stimulation with CP48/80 (10 μg/ml) for 20 min, tested vs cromoglycate (10 nM) as standard reference. Test was performed with liquid Embelia extract according to example 1 comprising 7.3% dry matter to measure its activity on degranulation of mast cells (Peritoneal cells from Wistar rat including ˜50% mast cells) stimulated with CP48/80. Effects on degranulation were evaluated by measuring histamine release after stimulation. Cells were cultured at 37° C., 5% CO2 and culture medium concerned EBSS supplemented with CaCl2 1.8 mM, MgCl2 0.8 mM and Bovine serum albumine (BSA) 0.1%. Mast cells were seeded in culture medium containing or not containing (control) the test compound or the reference (cromoglycate at 10 mM) and cells were pre-incubated for 20 minutes. Cells were then stimulated or not stimulated (non-stimulation control) with histamine release inducer CP48/80 at 10 μg/ml and incubated for 20 minutes. All experimental conditions were performed in n=3. At the end of incubation, the quantity of histamine in culture supernatants was measured using an ELISA kit according to the supplier's instructions. The inter-group comparisons were performed by Student's t-test for data management. Results are expressed in % according to the following formulas: [formula]

[3] = tested on: sensory neurons from dorsal root ganglia; experiment: Viability (MTT) of sensory neurons; type: cell-based, newborn Wistar rat; details: Capsazepine 30 μM
Protocol: A preliminary cytotoxicity test to select doses for further assay was performed with viability test (MMT assay).

[4] = tested on: sensory neurons from dorsal root ganglia; experiment: CGRP release induced by capsaicin in sensory neurons (ELISA); type: cell-based, newborn Wistar rat
Protocol: (§1) FIG. 4: Evaluation by Elisa assay of CGRP release. Protocol: in vitro test on sensory neurons, Sensory neurons from dorsal root ganglia of newborn Wistar rat, pre-treatment with Embelia extract for 30 min, stimulation with capsaicin (0.3 μM) for 30 min, tested vs capsazepine (30 μM) as standard reference.
(§2) Test was performed with liquid Embelia extract according to example 1 to measure its activity on release of substance P or CGRP induced by capsaicin in sensory neurons models. Cells were isolated from dorsal root ganglia of newborn Wistar rat. Cells were cultured at 37° C., 5% CO2 and culture medium concerned DMEM-Ham F12 supplemented with N2 complement 1%, antibiotics, L-glutamine 2 mM, nerve growth factor beta 20 ng/ml, neutrophin 5 ng/ml.
(§3) Sensory neurons were then seeded in culture medium containing or not containing (control) the test compound or the reference (capsazepine at 30 μM) and cells were pre-incubated for 30 minutes. Cells were then stimulated or not stimulated (non-stimulation control) with capsaicin (a pungent and irritating agent from hot chili pepper) at 0.3 μM and incubated for 30 minutes. All experimental conditions were performed in n=3. At the end of incubation, the quantity of neuromediators (Substance P or CGRP) in culture supernatants was measured using respective ELISA kit according to the supplier's instructions. The inter-group comparisons were performed by Student's t-test for data management.
(§4) Results are expressed in % according to the following formulas: […]

[5] = tested on: sensory neurons from dorsal root ganglia; experiment: Substance P release induced by capsaicin in sensory neurons (ELISA); type: cell-based, newborn Wistar rat
Protocol: as §1, with “3:” for “4:”, “substance P” for “CGRP”, “sensory” for “Sensory”
as §2, §3, §4

human neutrophils [6] = experiment: LTB4 release by neutrophils stimulated with opsonised zymosan (ELISA); type: cell-based
Protocol: (§5) The purpose of this study is the evaluation of the dry Embelia extract on the production of LTB4 (leucotriens B4) and PGE-2 (prostaglandin E-2) in human neutrophils. Venous blood from healthy donors was collected into tubes containing anticoagulant and sedimented with Dextran (Dextran T500). The supernatant was layered on Ficoll-Hypaque (density 1,077) and centrifuged at 400 g for 20 min. The cell pellet was washed in Tyrode (in mM: NaCl 137; KCl 2.6; glucose 5.6; HEPES 4.2; pH 7.4). Contaminating red blood corpuscules were lyzed. The cells were resuspended at 2.106 cells/ml in the Tyrode buffer supplemented with CaCl2 and MgCl2 (1.3 and 1 mM, respectively). Cells (2.106 cells/ml) were incubated at 37° C. in the presence or absence of the products to be tested during 15 min and then stimulated with opsonised zymosan (1 mg/ml) during 10 min. LTB4 assay was performed using a kit ELISA (Thermo Fisher ref. EHL LTB4). The quantity of LTB4 was expressed in pg/ml. PGE2 assay was performed using a kit ELISA (Assay designs ref 900-001 and SPIBIO ref 514010). The quantity of PGE2 was expressed in pg/ml. Data represent the means of values measured in one supernatant (non stimulated cells) or three supernatants (stimulated cells). Each measurement was assessed in duplicate. The means of the data were compared to the control condition (Student's t test-comparison of means—statistical significance at 95% if p<0.05* and at 99% if p<0.01**). The percentage of inhibition was calculated as follows: % inhibition=100×[(LTB4 treated with ECC (stimulated)/LTB4 control (stimulated)×100]

human neutrophils [7] = experiment: PGE2 release by neutrophils stimulated with opsonised zymosan (ELISA); type: cell-based; details: for PGE2: Indomethacin 1 μM
Protocol: as §5, with “p<0.01**).” for “p<0.01**). The percentage of inhibition was calculated as follows: % inhibition=100×[(LTB4 treated with ECC (stimulated)/LTB4 control (stimulated)×100]”

[8] = Cromoglycate 10 mM, CP48/80 at 10 μg/ml
[9] = Capsazepine 30 μM, capsaicin (0.3 μM)
[10] = Rattus norvegicus, Neuron, Capsazepine 30 μM, capsaicin (0.3 μM)
[11] = individual values, Capsazepine 30 μM, capsaicin (0.3 μM)

O=C(O)c1cc(=O)c2c(OCC(O)COc3cccc4oc(C(=O)O)cc(=O)c34)cccc2o1 [Cromoglycate]
Inhibition (%) [1, 8]: 42%
Mean Histamine [1, 8]: 29.5 nM
Stimulated Control (%) [1, 8]: 71%
effect on CP48/80-stimulated histamine release ([1]; cromoglycate 10 mM): significantly inhibited this effect
Histamine ([1]; individual values, Cromoglycate 10 mM, CP48/80 at 10 μg/ml): 32.3 nM and 27.0 nM and 29.0 nM
Inhibition (%) [2, 8]: 81%
Mean Histamine [2, 8]: 11.7 µM
Stimulated Control (%) [2, 8]: 20%
effect on CP48/80-stimulated histamine release ([2]; cromoglycate 10 mM): significantly inhibited this effect

Oc1cc2c(cc1O)CN(C(=S)NCCc1ccc(Cl)cc1)CCC2 [Capsazepine]
Viability (MTT) % Stimulated Control ([3]; Table 6 (substance P experiment)): 96%
Viability (MTT) Stimulated Control (%) ([3]; Table 7 (CGRP experiment)): 114%
Mean CGRP [4, 9]: 642 pg/mL
Stimulated Control (%) [4, 9]: 39%
inhibition at 30 µM [4, 10]: 64%
effect on capsaicin-stimulated CGRP release ([4]; capsazepine 30 μM): significantly inhibited this effect
CGRP [4, 11]: 671 pg/mL and 698 pg/mL and 557 pg/mL
% Stimulated Control (%) [5, 9]: 9%
Mean Substance P [5, 9]: 23 pg/mL
inhibition at 30 µM [5, 10]: 99%
effect on capsaicin-stimulated substance P release ([5]; capsazepine 30 μM): significantly inhibited this effect
Substance P [5, 11]: 23 pg/mL

C[C@H]1[C@H](C)CC[C@]2(C)CC[C@]3(C)C(=CC[C@@H]4[C@@]5(C)CC[C@@H](O)[C@](C)(C(=O)O)[C@@H]5CC[C@]43C)[C@H]12 [Boswellic acid]
inhibition at 10 µg/mL (human neutrophils [6]; Homo sapiens, Neutrophil, Boswellic acid 10 μg/ml, positive control): 45%

COc1ccc2c(c1)c(CC(=O)O)c(C)n2C(=O)c1ccc(Cl)cc1 [Indomethacin]
inhibition of PGE2 release (human neutrophils [7]; Indometacin 1 μM, positive control): 51%
PGE2 (human neutrophils [7]; (NS) not stimulated): 60 pg/mL
PGE2 (human neutrophils [7]; (S) stimulated with opsonised zymosan): 77.0 pg/mL

Cc1ncc([N+](=O)[O-])n1CCO [Metronidazole]
inhibition at 5 µg/mL (human neutrophils [6]; Homo sapiens, Neutrophil, metronidazole 5 μg/ml, positive control): 100%
LTB4 (human neutrophils [6]; Metronidazole (10 μg/ml), (S) stimulated with opsonised zymosan): 530 pg/mL

Reference: patent publication US9498505B2, “Embelia concinna extract comprising flavonoids in cosmetic and pharmaceutical compositions” (BAYER CONSUMER CARE AG, priority 2012, dated 2016)
